Test results as given in publication PMC6957519, “NLRP6 self-assembles into a linear molecular platform following LPS binding and ATP stimulation” (Scientific Reports, 2020).
“And” between values parts separate entries of the source, which are not always exact repeats. Identical values can stand only once.

T1: NLRP6 (Homo sapiens, UniProt P59044)
T1 construct: full-length 1-892; N-terminal His-MBP tag removed by HRV3C; E. coli BL21(DE3); monomer, dimerises with LPS
T1 sequence (P59044 1-892): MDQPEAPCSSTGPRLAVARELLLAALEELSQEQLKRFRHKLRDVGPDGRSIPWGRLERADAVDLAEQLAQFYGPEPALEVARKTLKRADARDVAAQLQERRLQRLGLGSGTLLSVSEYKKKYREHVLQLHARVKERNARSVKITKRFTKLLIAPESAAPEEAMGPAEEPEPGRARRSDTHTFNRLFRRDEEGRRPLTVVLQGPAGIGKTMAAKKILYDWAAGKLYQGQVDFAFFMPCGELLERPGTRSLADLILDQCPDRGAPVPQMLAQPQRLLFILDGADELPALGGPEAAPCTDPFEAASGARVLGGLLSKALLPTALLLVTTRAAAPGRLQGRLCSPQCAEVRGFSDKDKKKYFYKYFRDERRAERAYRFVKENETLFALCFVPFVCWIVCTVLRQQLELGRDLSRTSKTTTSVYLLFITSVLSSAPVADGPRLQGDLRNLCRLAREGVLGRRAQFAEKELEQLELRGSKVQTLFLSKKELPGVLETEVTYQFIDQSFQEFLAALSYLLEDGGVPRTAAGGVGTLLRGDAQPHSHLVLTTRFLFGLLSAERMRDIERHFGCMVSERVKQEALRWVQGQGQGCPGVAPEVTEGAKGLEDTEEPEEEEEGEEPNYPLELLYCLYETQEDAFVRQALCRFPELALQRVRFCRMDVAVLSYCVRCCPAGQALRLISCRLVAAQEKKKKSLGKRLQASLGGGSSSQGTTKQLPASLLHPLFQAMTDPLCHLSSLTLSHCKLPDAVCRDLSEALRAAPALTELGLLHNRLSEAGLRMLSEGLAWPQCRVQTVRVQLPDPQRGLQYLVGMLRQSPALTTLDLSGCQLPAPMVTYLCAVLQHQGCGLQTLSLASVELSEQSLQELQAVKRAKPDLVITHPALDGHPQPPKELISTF

B1: Recombinant full-length human NLRP6 (1–892) (natural protein, UniProt P59044 1-892, looked up)
chain: T1 sequence (P59044 1-892)
notes: NLRP6, human, full length, residues 1-892; Number of copies depends on the condition: monomer in the arginine buffer, dimer with LPS, tetramer, hexamer and longer linear oligomers with LPS and ATP; also called NLRP6 monomer; NLRP6 dimer; not shown: His-tag, N-terminal, cleaved; MBP, N-terminal, cleaved

How the values were obtained:
[1] = molecular target: T1, NLRP6; assay: nucleotide-induced oligomerization; format: binding; conditions: with LPS (LPS-bound dimer); putative NOD domain site
[2] = molecular target: T1, NLRP6; assay: gel filtration and EM, nucleotide-induced oligomerization; format: binding; conditions: with LPS (LPS-bound dimer); no shift of the monomer with ATP alone; putative NOD domain site
[3] = molecular target: the molecule itself; assay: SEC; NLRP6 monomer incubated with LPS (Ra, 10 uM or 20 uM; NLRP6 to component 1:20), Superdex 200 10/300; similar peak shifts with LPS Rc, Rd, Re, Lipid A, FITC-LPS and Pam3CSK4
[4] = molecular target: the molecule itself; assay: negative-stain electron microscopy; NLRP6 with LPS and ATP increased to 2 mM
[5] = molecular target: the molecule itself; assay: negative-stain electron microscopy with 3D reconstruction; NLRP6 with LPS and 1 mM ATP (peak 3 of the gel filtration); particles classed by the number of shrinked links; tetramer map from 8783 particles

Molecule	nucleotide-induced oligomerization [1]	further results
Nc1nc2c(ncn2[C@@H]2O[C@H](COP(=O)(O)OP(=O)(O)OP(=O)(O)O)[C@@H](O)[C@H]2O)c(=O)[nH]1 [GTP]	demonstrated by ATP, GTP, CTP, TTP, and deoxy-ATP (dATP) treatment	
Cc1cn([C@H]2C[C@H](O)[C@@H](COP(=O)(O)OP(=O)(O)OP(=O)(O)O)O2)c(=O)[nH]c1=O [TTP]	demonstrated by ATP, GTP, CTP, TTP, and deoxy-ATP (dATP) treatment	
Nc1ncnc2c1ncn2[C@@H]1O[C@H](COP(=O)(O)OP(=O)(O)OP(=O)(O)O)[C@@H](O)[C@H]1O [ATP]		gel filtration and EM, nucleotide-induced oligomerization [2]: in the presence of both ATP and LPS, NLRP6 showed additional peak shifts
Nc1ncnc2c1ncn2[C@H]1C[C@H](O)[C@@H](COP(=O)(O)OP(=O)(O)OP(=O)(O)O)O1 [deoxy-ATP]	demonstrated by ATP, GTP, CTP, TTP, and deoxy-ATP (dATP) treatment	
Nc1ccn([C@@H]2O[C@H](COP(=O)(O)OP(=O)(O)OP(=O)(O)O)[C@@H](O)[C@H]2O)c(=O)n1 [CTP]	demonstrated by ATP, GTP, CTP, TTP, and deoxy-ATP (dATP) treatment	
B1		stoichiometry N [3]: 2; stoichiometry N [4]: 16 and 18; stoichiometry N [5]: 4 and 6 and 8 and 10
